In patent US10538554B2, “Peptides and uses therefor as antiviral agents” (priority 2015, dated 2020):
Where two headings read alike, the source gives them in different places. Bridge positions count the residues as written; N and C are the ends. Square brackets hold non-standard residues; d marks the D form. Peptide text beside a SMILES is read from it.

Legend:
H9N2 A/Iran/16/2000 = conditions: 48 h
[1] = test system: H1N1 A1/Malaysia/302/1954; conditions: A1/Malaysia/302/1954, 48 h
H3N8 A/Miami/2/63 = conditions: A/Miami/2/63, 48 h
H3N2 A/HK/8/1968 = conditions: A/HK/8/1968, 48 h

| Compound | % inhibition H9N2 (H9N2 A/Iran/16/2000; 50 μM) [%] | % inhibition H1N1 ([1]; 50 μM) [%] | % inhibition H3N8 (H3N8 A/Miami/2/63; 50 μM) [%] | % inhibition H3N2 (H3N2 A/HK/8/1968; 50 μM) [%] | % inhibition H9N2 (H9N2 A/Iran/16/2000; 500 μM) [%] | % inhibition H1N1 ([1]; 500 μM) [%] | % inhibition H3N8 (H3N8 A/Miami/2/63; 500 μM) [%] | % inhibition H3N2 (H3N2 A/HK/8/1968; 500 μM) [%] |
| --- | --- | --- | --- | --- | --- | --- | --- | --- |
| CC[C@@H](C)[C@H]1NC(=O)[C@@H](Cc2ccccc2)NC(=O)[C@@H](CCCNC(=N)N)NC(=O)[C@@H](C(C)C)NC(=O)[C@@H](Cc2c[nH]c3ccccc23)NC(=O)[C@@H]([C@H](C)O)NC(=O)[C@H](NC(=O)[C@H](CCCCN)NC(=O)[C@H](CCCCN)NC(=O)[C@H](CCCNC(=N)N)NC(=O)[C@@H](N)CCCNC(=N)N)CSSC[C@H](C(=O)O)NC(=O)[C@@H](CC(N)=O)NC1=O [PSP III B18, H-RRKKctwvrfinc-OH] (H-RRKK[dC][dT][dW][dV][dR][dF][dI][dN][dC]-OH; disulfide 5-13) | 88 | 90 | 100 | 100 |  |  |  |  |
| C[C@H](O)[C@H]1NC(=O)[C@H](N)CSSC[C@H](C(=O)O)NC(=O)[C@@H](CC(N)=O)NC(=O)[C@H]2CCCN2C(=O)[C@@H](Cc2ccccc2)NC(=O)[C@@H](CCCNC(=N)N)NC(=O)[C@@H](CO)NC(=O)[C@@H](CCCCN)NC1=O [PSP 13, H-ctksrfpnc-OH] (H-[dC][dT][dK][dS][dR][dF][dP][dN][dC]-OH; disulfide 1-9) |  |  |  |  | 18.2 | 32.7 | 70.1 | 29.6 |
| CC[C@@H](C)[C@H]1NC(=O)[C@@H](Cc2ccccc2)NC(=O)[C@@H](CCCNC(=N)N)NC(=O)[C@@H](CO)NC(=O)[C@@H](Cc2c[nH]c3ccccc23)NC(=O)[C@@H]([C@H](C)O)NC(=O)[C@H](NC(=O)[C@H](CCCCN)NC(=O)[C@H](CCCCN)NC(=O)[C@H](CCCNC(=N)N)NC(=O)[C@@H](N)CCCNC(=N)N)CSSC[C@H](C(=O)O)NC(=O)[C@@H](CC(N)=O)NC1=O [PSP III B16, H-RRKKctwsrfinc-OH] (H-RRKK[dC][dT][dW][dS][dR][dF][dI][dN][dC]-OH; disulfide 5-13) | 88 | 88 | 96 | 96 |  |  | 100 |  |
| C[C@H](O)[C@H]1NC(=O)[C@H](N)CSSC[C@H](C(=O)O)NC(=O)[C@@H](CC(N)=O)NC(=O)[C@@H](Cc2c[nH]cn2)NC(=O)[C@@H](Cc2ccccc2)NC(=O)[C@@H](CCCNC(=N)N)NC(=O)[C@@H](CO)NC(=O)[C@@H](CCCCN)NC1=O [PSP 7, H-ctksrfhnc-OH] (H-[dC][dT][dK][dS][dR][dF][dH][dN][dC]-OH; disulfide 1-9) |  |  |  |  | 31.8 | 23.5 | 76.3 | 81.8 |
| CC[C@@H](C)[C@H]1NC(=O)[C@@H](Cc2ccccc2)NC(=O)[C@@H](CCCNC(=N)N)NC(=O)[C@@H](CC(C)C)NC(=O)[C@@H](Cc2c[nH]c3ccccc23)NC(=O)[C@@H]([C@H](C)O)NC(=O)[C@H](NC(=O)[C@H](CCCCN)NC(=O)[C@H](CCCCN)NC(=O)[C@H](CCCNC(=N)N)NC(=O)[C@@H](N)CCCNC(=N)N)CSSC[C@H](C(=O)O)NC(=O)[C@@H](CC(N)=O)NC1=O [PSP III B10, H-RRKKctwlrfinc-OH] (H-RRKK[dC][dT][dW][dL][dR][dF][dI][dN][dC]-OH; disulfide 5-13) | 90 | 92 | 96 | 100 |  |  |  |  |
| CC[C@@H](C)[C@H]1NC(=O)[C@@H](Cc2ccccc2)NC(=O)[C@@H](CCCNC(=N)N)NC(=O)[C@@H](CC(N)=O)NC(=O)[C@@H](Cc2c[nH]c3ccccc23)NC(=O)[C@@H]([C@H](C)O)NC(=O)[C@H](NC(=O)[C@H](CCCCN)NC(=O)[C@H](CCCCN)NC(=O)[C@H](CCCNC(=N)N)NC(=O)[C@@H](N)CCCNC(=N)N)CSSC[C@H](C(=O)O)NC(=O)[C@@H](CC(N)=O)NC1=O [PSP III B12, H-RRKKctwnrfinc-OH] (H-RRKK[dC][dT][dW][dN][dR][dF][dI][dN][dC]-OH; disulfide 5-13) | 83 | 75 | 87 | 100 |  |  |  |  |
| CC(C)[C@H]1NC(=O)[C@@H](Cc2ccccc2)NC(=O)[C@@H](CCCNC(=N)N)NC(=O)[C@@H](CO)NC(=O)[C@@H](CCCCN)NC(=O)[C@@H]([C@H](C)O)NC(=O)[C@H](N)CSSC[C@H](C(=O)O)NC(=O)[C@@H](CC(N)=O)NC1=O [PSP 18, H-ctksrfvnc-OH] (H-[dC][dT][dK][dS][dR][dF][dV][dN][dC]-OH; disulfide 1-9) |  |  |  |  | 45.5 | 51.9 | 78.4 | 70.4 |
| CC[C@@H](C)[C@H]1NC(=O)[C@@H](Cc2ccccc2)NC(=O)[C@@H](CCCNC(=N)N)NC(=O)[C@@H](CC(=O)O)NC(=O)[C@@H](Cc2c[nH]c3ccccc23)NC(=O)[C@@H]([C@H](C)O)NC(=O)[C@H](NC(=O)[C@H](CCCCN)NC(=O)[C@H](CCCCN)NC(=O)[C@H](CCCNC(=N)N)NC(=O)[C@@H](N)CCCNC(=N)N)CSSC[C@H](C(=O)O)NC(=O)[C@@H](CC(N)=O)NC1=O [PSP III B3, H-RRKKctwdrfinc-OH] (H-RRKK[dC][dT][dW][dD][dR][dF][dI][dN][dC]-OH; disulfide 5-13) | 20 | 12 | 43 | 83 |  |  |  |  |
| CC[C@@H](C)[C@H]1NC(=O)[C@@H](Cc2ccccc2)NC(=O)[C@@H](CCCNC(=N)N)NC(=O)[C@@H]([C@H](C)CC)NC(=O)[C@@H](Cc2c[nH]c3ccccc23)NC(=O)[C@@H]([C@H](C)O)NC(=O)[C@H](NC(=O)[C@H](CCCCN)NC(=O)[C@H](CCCCN)NC(=O)[C@H](CCCNC(=N)N)NC(=O)[C@@H](N)CCCNC(=N)N)CSSC[C@H](C(=O)O)NC(=O)[C@@H](CC(N)=O)NC1=O [PSP III B8, H-RRKKctwirfinc-OH] (H-RRKK[dC][dT][dW][dI][dR][dF][dI][dN][dC]-OH; disulfide 5-13) | 81 | 88 | 91 | 100 |  |  |  |  |
| CC[C@@H](C)[C@H]1NC(=O)[C@@H](Cc2ccccc2)NC(=O)[C@@H](CCCNC(=N)N)NC(=O)[C@H]2CCCN2C(=O)[C@@H](Cc2c[nH]c3ccccc23)NC(=O)[C@@H]([C@H](C)O)NC(=O)[C@H](NC(=O)[C@H](CCCCN)NC(=O)[C@H](CCCCN)NC(=O)[C@H](CCCNC(=N)N)NC(=O)[C@@H](N)CCCNC(=N)N)CSSC[C@H](C(=O)O)NC(=O)[C@@H](CC(N)=O)NC1=O [PSP III B13, H-RRKKctwprfinc-OH] (H-RRKK[dC][dT][dW][dP][dR][dF][dI][dN][dC]-OH; disulfide 5-13) | 79 | 63 | 83 | 96 |  |  |  |  |
| CC[C@@H](C)[C@H]1NC(=O)[C@@H](Cc2ccccc2)NC(=O)[C@@H](CCCNC(=N)N)NC(=O)[C@@H](CCSC)NC(=O)[C@@H](Cc2c[nH]c3ccccc23)NC(=O)[C@@H]([C@H](C)O)NC(=O)[C@H](NC(=O)[C@H](CCCCN)NC(=O)[C@H](CCCCN)NC(=O)[C@H](CCCNC(=N)N)NC(=O)[C@@H](N)CCCNC(=N)N)CSSC[C@H](C(=O)O)NC(=O)[C@@H](CC(N)=O)NC1=O [PSP III B11, H-RRKKctwmrfinc-OH] (H-RRKK[dC][dT][dW][dM][dR][dF][dI][dN][dC]-OH; disulfide 5-13) | 93 | 94 | 96 | 100 |  |  |  |  |
| C[C@H](O)[C@H]1NC(=O)[C@H](N)CSSC[C@H](C(=O)O)NC(=O)[C@@H](CC(N)=O)NC(=O)[C@@H](Cc2ccc(O)cc2)NC(=O)[C@@H](Cc2ccccc2)NC(=O)[C@@H](CCCNC(=N)N)NC(=O)[C@@H](CO)NC(=O)[C@@H](CCCCN)NC1=O [PSP 20, H-ctksrfync-OH] (H-[dC][dT][dK][dS][dR][dF][dY][dN][dC]-OH; disulfide 1-9) |  |  |  |  | 63.6 | 73.5 | 81.4 | 95.5 |
| CC[C@@H](C)[C@H]1NC(=O)[C@@H](Cc2ccccc2)NC(=O)[C@@H](CCCNC(=N)N)NC(=O)[C@@H](CCC(=O)O)NC(=O)[C@@H](Cc2c[nH]c3ccccc23)NC(=O)[C@@H]([C@H](C)O)NC(=O)[C@H](NC(=O)[C@H](CCCCN)NC(=O)[C@H](CCCCN)NC(=O)[C@H](CCCNC(=N)N)NC(=O)[C@@H](N)CCCNC(=N)N)CSSC[C@H](C(=O)O)NC(=O)[C@@H](CC(N)=O)NC1=O [PSP III B4, H-RRKKctwerfinc-OH] (H-RRKK[dC][dT][dW][dE][dR][dF][dI][dN][dC]-OH; disulfide 5-13) | 86 | 81 | 91 | 100 |  |  |  |  |
| CC[C@@H](C)[C@H]1NC(=O)[C@@H](Cc2ccccc2)NC(=O)[C@@H](CCCNC(=N)N)NC(=O)[C@@H](CO)NC(=O)[C@@H](CCCCN)NC(=O)[C@@H]([C@H](C)O)NC(=O)[C@H](N)CSSC[C@H](C(=O)O)NC(=O)[C@@H](CC(N)=O)NC1=O [PSP 8, H-ctksrfinc-OH] (H-[dC][dT][dK][dS][dR][dF][dI][dN][dC]-OH; disulfide 1-9) |  |  |  |  | 90.9 | 79.4 | 83.5 | 90.9 |
| C[C@H](O)[C@H]1NC(=O)[C@H](N)CSSC[C@H](C(=O)O)NC(=O)[C@@H](CC(N)=O)NC(=O)[C@@H](Cc2c[nH]c3ccccc23)NC(=O)[C@@H](Cc2ccccc2)NC(=O)[C@@H](CCCNC(=N)N)NC(=O)[C@@H](CO)NC(=O)[C@@H](CCCCN)NC1=O [PSP 19, H-ctksrfwnc-OH] (H-[dC][dT][dK][dS][dR][dF][dW][dN][dC]-OH; disulfide 1-9) |  |  |  |  |  | 28.8 | 78.4 | 92.6 |
